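How tested: cells in 96-well plates exposed to compound for 48 hours at five concentrations. Here, GI50 denotes the concentration required for 50% inhibition of growth.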 The source made the active and inactive calls. No stated cut-off is given here; in the data, active = GI50 up to about 1.1 µM and inactive = higher.
What was measured:
Assay in all cases: inhibition of tumour cell growth, NCI panel, 48 h
HCT-116 = system: HCT-116
CCRF-CEM = system: CCRF-CEM
NCI-H226 = system: NCI-H226
OVCAR-8 = system: OVCAR-8
XF498 = system: XF498
UO-31 = system: UO-31
UACC-257 = system: UACC-257
OVCAR-3 = system: OVCAR-3
EKVX = system: EKVX
TK-10 = system: TK-10
OVCAR-4 = system: OVCAR-4
NCI-H522 = system: NCI-H522
CAKI-1 = system: CAKI-1
KM-20L2 = system: KM-20L2
SN12C = system: SN12C
A498 = system: A498
SK-MEL-28 = system: SK-MEL-28
SNB-78 = system: SNB-78
IGROV-1 = system: IGROV-1
SW-620 = system: SW-620
OVCAR-5 = system: OVCAR-5
UACC-62 = system: UACC-62
DMS-273 = system: DMS-273
HCT-15 = system: HCT-15
HOP-92 = system: HOP-92
HCC 2998 = system: HCC 2998
HOP-62 = system: HOP-62
SF-268 = system: SF-268
M19-MEL = system: M19-MEL
SK-MEL-5 = system: SK-MEL-5
RPMI-8226 = system: RPMI-8226
SNB-19 = system: SNB-19
HL-60 = system: HL-60
Malme-3M = system: Malme-3M
RXF 393 = system: RXF 393
SNB-75 = system: SNB-75
K562 = system: K562
NCI-H460 = system: NCI-H460
NCI-H23 = system: NCI-H23
LOX IMVI = system: LOX IMVI
HT-29 = system: HT-29
DMS-114 = system: DMS-114
KM12 = system: KM12
SK-OV-3 = system: SK-OV-3
U-251 = system: U-251
SF-295 = system: SF-295
DLD-1 = system: DLD-1
ACHN = system: ACHN
MOLT-4 = system: MOLT-4
SK-MEL-2 = system: SK-MEL-2
SF-539 = system: SF-539
M14 = system: M14
A549 = system: A549
786-0 = system: 786-0
RXF 631 = system: RXF 631
LXFL 529 = system: LXFL 529
COLO 205 = system: COLO 205
SR = system: SR

COC(=O)C1(C(=O)OC)CC2c3c(c4ccccc4n3C)CC(C1=O)N2Cc1ccccc1 (configuration not stated)
GI50 (HCT-116): > 100 µM (inactive) | GI50 (CCRF-CEM): > 100 µM (inactive) | GI50 (NCI-H226): > 100 µM (inactive) | GI50 (OVCAR-8): > 100 µM (inactive) | GI50 (XF498): > 100 µM (inactive) | GI50 (UO-31): > 100 µM (inactive) | GI50 (UACC-257): > 100 µM (inactive) | GI50 (OVCAR-3): > 100 µM (inactive) | GI50 (EKVX): > 100 µM (inactive) | GI50 (TK-10): > 100 µM (inactive) | GI50 (OVCAR-4): 76.6 µM (inactive) | GI50 (NCI-H522): 57.3 µM (inactive) | GI50 (CAKI-1): > 100 µM (inactive) | GI50 (KM-20L2): > 100 µM (inactive) | GI50 (SN12C): > 100 µM (inactive) | GI50 (A498): > 100 µM (inactive) | GI50 (SK-MEL-28): 80 µM (inactive) | GI50 (SNB-78): > 100 µM (inactive) | GI50 (IGROV-1): > 100 µM (inactive) | GI50 (SW-620): > 100 µM (inactive) | GI50 (OVCAR-5): > 100 µM (inactive) | GI50 (UACC-62): 89.9 µM (inactive) | GI50 (DMS-273): > 100 µM (inactive) | GI50 (HCT-15): > 100 µM | GI50 (HOP-92): > 100 µM (inactive) | GI50 (HCC 2998): > 100 µM (inactive) | GI50 (HOP-62): > 100 µM (inactive) | GI50 (SF-268): > 100 µM (inactive) | GI50 (M19-MEL): > 100 µM (inactive) | GI50 (SK-MEL-5): > 100 µM (inactive) | GI50 (RPMI-8226): 61.1 µM (inactive) | GI50 (SNB-19): > 100 µM (inactive) | GI50 (HL-60): 96.8 µM (inactive) | GI50 (Malme-3M): > 100 µM (inactive) | GI50 (RXF 393): 29.8 µM (inactive) | GI50 (SNB-75): 15.4 µM (inactive) | GI50 (K562): > 100 µM (inactive) | GI50 (NCI-H460): > 100 µM (inactive) | GI50 (NCI-H23): > 100 µM (inactive) | GI50 (LOX IMVI): > 100 µM (inactive) | GI50 (HT-29): > 100 µM (inactive) | GI50 (DMS-114): > 100 µM (inactive) | GI50 (KM12): > 100 µM (inactive) | GI50 (SK-OV-3): > 100 µM (inactive) | GI50 (U-251): > 100 µM (inactive) | GI50 (SF-295): > 100 µM (inactive) | GI50 (DLD-1): > 100 µM (inactive) | GI50 (ACHN): > 100 µM (inactive) | GI50 (MOLT-4): > 100 µM (inactive) | GI50 (SK-MEL-2): > 100 µM (inactive) | GI50 (SF-539): > 100 µM (inactive) | GI50 (M14): > 100 µM (inactive) | GI50 (A549): > 100 µM (inactive) | GI50 (786-0): > 100 µM (inactive) | GI50 (RXF 631): > 100 µM (inactive) | GI50 (LXFL 529): > 100 µM (inactive) | GI50 (COLO 205): > 100 µM (inactive)

O=C(c1ccccc1)c1ccc2c(c1)N=C(c1ccc(Cl)c(Cl)c1)CC(c1ccc3ccccc3c1)N2 (configuration not stated)
GI50 (HCT-116): > 100 µM (inactive) | GI50 (CCRF-CEM): 67.6 µM (inactive) | GI50 (NCI-H226): > 100 µM (inactive) | GI50 (OVCAR-8): > 100 µM (inactive) | GI50 (XF498): > 100 µM (inactive) | GI50 (UO-31): > 100 µM (inactive) | GI50 (UACC-257): > 100 µM (inactive) | GI50 (EKVX): > 100 µM (inactive) | GI50 (TK-10): > 100 µM (inactive) | GI50 (OVCAR-4): > 100 µM (inactive) | GI50 (NCI-H522): > 100 µM (inactive) | GI50 (CAKI-1): > 100 µM (inactive) | GI50 (KM-20L2): > 100 µM (inactive) | GI50 (SN12C): > 100 µM (inactive) | GI50 (A498): > 100 µM (inactive) | GI50 (SK-MEL-28): > 100 µM (inactive) | GI50 (SNB-78): > 100 µM (inactive) | GI50 (IGROV-1): > 100 µM (inactive) | GI50 (SW-620): > 100 µM (inactive) | GI50 (OVCAR-5): > 100 µM (inactive) | GI50 (UACC-62): > 100 µM (inactive) | GI50 (DMS-273): > 100 µM (inactive) | GI50 (HCT-15): > 100 µM | GI50 (HOP-92): > 100 µM (inactive) | GI50 (HCC 2998): > 100 µM (inactive) | GI50 (HOP-62): > 100 µM (inactive) | GI50 (SF-268): > 100 µM (inactive) | GI50 (M19-MEL): > 100 µM (inactive) | GI50 (SK-MEL-5): > 100 µM (inactive) | GI50 (RPMI-8226): 99.8 µM (inactive) | GI50 (SNB-19): > 100 µM (inactive) | GI50 (HL-60): 69 µM (inactive) | GI50 (RXF 393): > 100 µM (inactive) | GI50 (SNB-75): > 100 µM (inactive) | GI50 (K562): > 100 µM (inactive) | GI50 (NCI-H460): > 100 µM (inactive) | GI50 (NCI-H23): > 100 µM (inactive) | GI50 (LOX IMVI): > 100 µM (inactive) | GI50 (HT-29): > 100 µM (inactive) | GI50 (DMS-114): > 100 µM (inactive) | GI50 (KM12): > 100 µM (inactive) | GI50 (SK-OV-3): > 100 µM (inactive) | GI50 (U-251): > 100 µM (inactive) | GI50 (SF-295): > 100 µM (inactive) | GI50 (DLD-1): > 100 µM (inactive) | GI50 (ACHN): > 100 µM (inactive) | GI50 (MOLT-4): > 100 µM (inactive) | GI50 (SK-MEL-2): > 100 µM (inactive) | GI50 (SF-539): > 100 µM (inactive) | GI50 (M14): > 100 µM (inactive) | GI50 (A549): > 100 µM (inactive) | GI50 (SR): > 100 µM (inactive) | GI50 (RXF 631): > 100 µM (inactive) | GI50 (LXFL 529): > 100 µM (inactive) | GI50 (COLO 205): > 100 µM (inactive)
